Data taken from patent US9539298B2, “Lissencephaly therapeutic agent” (OSAKA CITY UNIVERSITY, priority 2010, dated 2017).

Legend:
[1] = tested on: LIS1 heterozygous newborn mice; assay: LIS1 protein in newborn mouse brains after SNJ-1945 oral administration; assay type: in vivo
Experimental: A neo(−)129S-Pafah1b1^tm2Awb/J homozygous male mouse lacking neo gene was mated with five homozygous EII-Cre transgenic female mice (FVB/N-Tg (EIIa-cre) C5379Lmgd/J, The Jackson Laboratory) by raising them in the same mouse cage. In total, six sets of mouse cages were prepared for the mating experiment. A newborn was defined at the time of delivery confirmation, which was conducted every morning. SNJ-1945 was dissolved in dimethyl sulfoxide (DMSO) at a concentration of 100 mg/ml, and orally administered using pipettes to the newborn mice in an amount of 200 μg/per gram of body weight.
To determine the effect of SNJ-1945 administration, LIS1 proteins of normal newborn mice and LIS1 heterozygous newborn mice (administered with SNJ-1945) were measured. In the SNJ-1945 administration group, the brain tissues were taken at 0 hour (immediately after the administration), 1 hour, 2 hours, 4 hours, 8 hours, 12 hours, 16 hours, 24 hours, 48 hours, and 72 hours after the administration to measure LIS1 protein, so as to determine the effect of SNJ-1945 over time. Six mice for each group were used for the measurement of LIS1 protein (n=6).
The newborn mice were killed by cutting off their heads, and the brain tissues thereof were immediately isolated. For the measurement of LIS1 protein amount, the weight of the brains was immediately measured as soon as the brains were removed.

[2] = biological target: T1, μ-calpain (derived from human red blood cells) (Homo sapiens, UniProt P07384); assay: Measurement of inhibitory activity against μ-calpain; assay type: biochemical; details: casein substrate, 30° C., 60 minutes; read-out: enzyme inhibitory activities (μM) μ-calpain
T1 construct: derived from human red blood cells; purchased Cosmo Bio Co., Ltd; host or cells: human red blood cells (tissue-purified)
T1 sequence (P07384 1-714): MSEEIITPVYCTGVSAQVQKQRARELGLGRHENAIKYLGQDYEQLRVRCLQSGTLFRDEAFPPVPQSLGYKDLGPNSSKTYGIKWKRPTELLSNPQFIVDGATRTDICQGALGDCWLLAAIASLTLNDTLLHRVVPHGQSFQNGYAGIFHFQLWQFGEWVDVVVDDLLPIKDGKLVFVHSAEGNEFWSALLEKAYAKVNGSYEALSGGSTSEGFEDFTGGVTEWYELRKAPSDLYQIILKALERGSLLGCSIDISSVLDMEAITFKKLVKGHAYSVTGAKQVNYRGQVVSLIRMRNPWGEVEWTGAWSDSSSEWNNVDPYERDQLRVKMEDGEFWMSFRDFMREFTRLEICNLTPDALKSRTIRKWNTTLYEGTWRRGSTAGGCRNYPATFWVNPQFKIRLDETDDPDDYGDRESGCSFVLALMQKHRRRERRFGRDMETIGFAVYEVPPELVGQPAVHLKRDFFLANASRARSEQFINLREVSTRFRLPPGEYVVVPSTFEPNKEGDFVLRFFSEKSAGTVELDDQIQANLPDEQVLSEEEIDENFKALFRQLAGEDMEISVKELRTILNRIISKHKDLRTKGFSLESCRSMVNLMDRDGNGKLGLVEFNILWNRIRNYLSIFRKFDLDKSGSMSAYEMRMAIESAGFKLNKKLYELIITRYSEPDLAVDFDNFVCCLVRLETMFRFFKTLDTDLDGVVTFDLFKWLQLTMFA
T1 sequence (P04632 1-268 partner): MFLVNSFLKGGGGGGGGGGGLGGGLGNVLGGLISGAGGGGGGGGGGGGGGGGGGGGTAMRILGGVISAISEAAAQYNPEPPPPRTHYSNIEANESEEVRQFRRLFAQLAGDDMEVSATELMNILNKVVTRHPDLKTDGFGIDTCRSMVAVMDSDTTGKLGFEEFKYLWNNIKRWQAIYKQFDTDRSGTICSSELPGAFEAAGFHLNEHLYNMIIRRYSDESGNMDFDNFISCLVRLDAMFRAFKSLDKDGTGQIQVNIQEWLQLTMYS
Experimental: The inhibitory activity against μ-calpain and m-calpain was assayed according to a published method (Anal. Biochem. 1993, vol. 208, p. 387-392). More specifically, 200 μL of a reaction solution containing 0.5 mg/mL casein, 50 mM Tris-HCl buffer (pH 7.4), 20 mM dithiothreitol and 1.0 nmol μ-calpain (derived from human red blood cells, Cosmo Bio Co., Ltd.) or m-calpain (derived from porcine kidney, Cosmo Bio Co., Ltd.) was added to individual 2.5 μL portions of DMSO solution containing a varying concentration of a test sample in a 96-well plate. Then, 50 μL of 20 mM aqueous calcium chloride was added thereto, and reaction was performed at 30° C. for 60 minutes. 100 μL of the reaction solution was transferred to another 96-well plate, and purified water (50 μL) and 50% aqueous solution (100 μL) of Protein Assay Dye Reagent (available from Bio-Rad Laboratories, Inc.; catalogue No. 500-600) were added thereto. The reaction mixture was allowed to stand at room temperature for 15 minutes, and its absorbance was measured at 595 nm. The absorbance of a reaction mixture prepared in the same manner as mentioned above, except that a DMSO solution containing no sample was used as a control value; and the absorbance of a reaction mixture prepared in the same manner as mentioned above, except that a 1 mM aqueous EDTA solution (50 μL) was used in place of 20 mM aqueous calcium chloride, was used as a blank value. […] Inhibition rate (%){1−(measured value−blank test value)/(control value−blank test value)}×100
The concentrations (IC50) are shown in Table 1 as enzyme (calpain) inhibitory activities (μM).

## COCCOCCOC(=O)N[C@@H](CC(C)C)C(=O)N[C@@H](Cc1ccccc1)C(=O)C(=O)NC1CC1 [compound 17, ((1S)-1-((((1S)-1-Benzyl-2,3-dioxo-3-(cyclopropylamino)propyl)amino)carbonyl)-3-methylbutyl)carbamic acid 5-methoxy-3-oxapentyl ester]
[1]; 200 μg per gram of body weight, oral, FIG. 7
  LIS1 protein amount in newborn brain: recovered to substantially the normal level
[1]; 200 μg/g oral
  duration of the effect on LIS1 protein after a single dose: continued for at least three days
[2]
  IC50: 0.17 µM
